Results: patent publication US20040072183A1, “Adhesive protein and uses thereof” (priority 2000, published 2004)

Experiments:
spiggin = settings: 11-KT treatment; cited from earlier work
spiggin mRNA [1] = test: Hormone implant dose response analysis of spiggin mRNA in kidney (slot blot, FIG. 3); format: in vivo, three-spined stickleback (Gasterosteus aculeatus); settings: hormone in silastic capsule implanted in abdominal cavity, one month exposure
Experimental: Hormones at different concentrations were dissolved in […] of coconut oil and placed within silastic capsules (Dow Corning, internal diameter 0.6 mm, outer diameter 1.2 mm, length 5 mm). The sealed capsules were implanted into the abdominal cavity of each fish which were subsequently placed in aquaria containing 200 l of brackish water (0.5% salinity) at 17° C. under a stimulatory photoperiod of L:D 16:8. Following one month exposure the fish were sacrificed and the required organs removed by dissection and stored at −70° C.
[…] total RNA was combined with 90 ml of 20×SSC and 60 ml 37% formaldehyde. The final volume was adjusted to 300 ml with MQ water. Each preparation was transferred onto nylon membrane (Amersham Pharmacia Biotech) using a Minifold II Slot Blot apparatus (Schleicher & Schuell). The RNA was bound onto the membrane by cross-linking in a CL-1000 UV apparatus (UVP). Membranes were radioactively probed as described below (Paragraph 10) and the relative levels of mRNA were determined using a GS-250 Molecular Phosphoimager coupled to the Molecular Analyst (Version 1:41) package (Bio Rad). All dose-response determinations were performed in triplicate and the results were expressed as the mean (±SD) for each hormone and dose assayed. […]

spiggin mRNA [2] = test: Methyltestosterone induction of spiggin mRNA via water in juvenile fish (slot blot, FIG. 5); format: in vivo, three spined stickleback; settings: exposure via water, 10 days, whole fish homogenate
Experimental: Juvenile three spined sticklebacks, with a body weight of approximately 100 mg, were exposed to different doses (100 pM, 10 nM and 1 uM) of methyltestosterone or to a combination of 10 nM methyltestosterone and 10 uM flutamide (an antiandrogen). After 10 days the fish were sacrificed. Whole fish were homogenized and spiggin mRNA levels were determined using slot blot analysis.

SMILES | Inducibility of spiggin production (spiggin) | Inducibility of spiggin expression in kidney (spiggin mRNA [1]) | Methyltestosterone concentration effective at inducing spiggin mRNA (spiggin mRNA [2])
C[C@]12CC(=O)[C@H]3[C@@H](CCC4=CC(=O)CC[C@@]43C)[C@@H]1CC[C@@H]2O [11-ketotestosterone] | inducible | inducible | 
C[C@]12CCC(=O)C=C1CC[C@@H]1[C@@H]2CC[C@@]2(C)[C@H]1CC[C@]2(C)O [methyltestosterone] |  |  | ≥ 100 pM
